Experimental findings from patent US11885796B2, “Assay to identify anti-cancer agents” (LDN Pharma Limited, priority 2017, dated 2024) are described below.

Holding throughout (type): cell-based
Data set [1] deals with OPRK1. The data set can be described thus: Level of expression of OPRK1 by immunoblotting in A549 lung cancer cells. The note with it: 1 nM to 10 μM, 48 h, immunoblotting (FIG. 1). The protocol:
(§1) In order to determine the effect of 6-β-naltrexol or naltrexone on the level of expression of OPRK1, A549 lung cancer or HCT116 colon cancer cells were seeded onto 6-well plates at a density of 2×10^5 cell/well, and allowed to adhere overnight. Cells were then cultured in the presence of naltrexone or 6-β-naltrexol at concentrations of 1 nM, 10 nM, 100 nM, 1 μM or 10 μM for a further 48 h. Cells were then harvested and processed for measurements of OPRK1, opioid receptor-μ1 (OPRM1) and GAPDH using standard immunoblotting techniques. The effect of 6-β-naltrexol or naltrexone on the level of expression of BAD was investigated by using the same protocol as outlined above. The effect was determined in HCT116 cells using either 10 nM or 10 μM of 6-β-naltrexol or 10 nM or 10 μM naltrexone (FIG. 2).

The test system of data set [2] is OPRK1. The data set can be described thus: Level of expression of OPRK1 by immunoblotting in HCT116 colon cancer cells. The note with it: 1 nM to 10 μM, 48 h, immunoblotting (FIG. 1). How it is done: as §1
Data set [3] has as its system BAD. Briefly: Level of expression of BAD by immunoblotting in HCT116 cells. The note with it: 48 h (FIG. 2). The protocol:
as §1

Data set [4] relates to A549 and HCT116 cells. The data set can be described thus: Two-phase priming with 6-β-naltrexol then chemotherapy agent; cell number and viability by trypan blue cell counting. How it is done: The impact of combining 6-β-naltrexol with other chemotherapeutic agents was tested by culturing cells according to a treatment schedule that involved two phases of treatment. The first phase involved priming with 10 nM 6-β-naltrexol or 10 μM 6-β-naltrexol for 48 h, before treatment with another drug for a further 48 h. A549 and HCT116 cells were seeded into 6-well plates at a density of 2×10^5 cells/well and left to adhere overnight. Media was removed after 48 h, and cells were rinsed gently with drug-free medium. Fresh culture medium that contained cyclophosphamide (CPM), gemcitabine (GEM) or oxaliplatin (OXP) was then added to the cells. The concentrations of the chemotherapy agents used were approximately ¼ IC50, as established previously (Liu W M, Fowler D W, Smith P, Dalgleish A G. Pre-treatment with chemotherapy can enhance the antigenicity and immunogenicity of tumours by promoting adaptive immune responses. Br J Cancer. 2010 Jan. 5; 102(1):115-23). Cells were then left for a further 48 h before assessment of cell number of viability by cell counting using trypan blue dye as a way of discriminating live and dead cells. Cytostasis was indicated by a reduction in cell number and no associated reduction in cell viability.

`O=C1CC[C@@]2(O)[C@H]3Cc4ccc(O)c5c4[C@@]2(CCN3CC2CC2)[C@H]1O5` [naltrexone]: the “level of expression of OPRK1” value is “increase the level of expression” in data set [1] and “down-regulates the level of expression” in data set [2]. Also, the “effect on the level of expression of BAD” value in data set [3] (10 nM) and in data set [3] (10 μM) was “negligible effect” each time.

In the case of `Oc1ccc2c3c1OC1[C@H](O)CC[C@@]4(O)[C@@H](C2)N(CC2CC2)CC[C@]314` (stereo partly drawn) [6-β-naltrexol, 17-(Cyclopropylmethyl)-4,5-epoxymorphinan-3,6beta, 14-triol], the results for the “level of expression of OPRK1” value in data set [1] and in data set [2] were “increase the level of expression” and “increases the level of expression”, respectively. Further, in data set [3] (10 nM), the “effect on the level of expression of BAD” value is recorded as “negligible effect”. Besides, the “increase of the level of expression of BAD” value in data set [3] (10 μM) is listed as “more than 10%”. Moreover, the “independent cytotoxicity of the priming agent” value in data set [4] (higher dose of 6-β-naltrexol alone (double doses control)) is “absence of any independent increase in cytotoxicity”. Besides, the “cytotoxic effect of certain anti-cancer agents after priming” value in data set [4] (priming 48 h in an amount sufficient to raise OPRK1 expression by at least 10%, then cyclophosphamide, gemcitabine or oxaliplatin at approximately ¼ IC50 for 48 h) is given as “increased”.
